Experimental data published in patent US7176212B2, “2,4-diamino pyrimidine compounds having anti-cell proliferative activity” (AstraZeneca AB, priority 1998, dated 2007).

Columns and labels:
CDK4/Cyclin D1 = target: T1, CDK4/Cyclin D1 (Homo sapiens, UniProt P11802); test: CDK inhibition assay (Scintillation Proximity Assay, GST-Retinoblastoma substrate); format: biochemical; conditions: in-vitro SPA kinase assay, CDK4/Cyclin D1, GST-Rb substrate; read-out: CDK4 inhibitory activity IC50
T1 construct: CDK4 amino acids 1–303; made in house; host or cells: Sf21 (Spodoptera frugiperda) insect cells, baculovirus co-infection, vector pVL1393
Description: The compounds were tested in an in vitro kinase assay in 96 well format using Scintillation Proximity Assay (SPA—obtained from Amersham) for measuring incorporation of [γ-33-P]-Adenosine Triphosphate into a test substrate (GST-Retinoblastoma). In each well was placed the compound to be tested (diluted in DMSO and water to correct concentrations) and in control wells either p16 as an inhibitor control or DMSO as a positive control.
Approximately 0.5 μl of CDK4/Cyclin D1 partially-purified enzyme (amount dependent on enzyme activity) diluted in 25 μl incubation buffer was added to each well then 20 μl of GST-Rb/ATP/ATP33 mixture (containing 0.5 μg GST-Rb and 0.2 μM ATP and 0.14 μCi [γ-33-P]-Adenosine Triphosphate), and the resulting mixture shaken gently, then incubated at room temperature for 60 minutes.
To each well was then added 150 μL stop solution containing (0.8 mg/well of Protein A-PVT SPA bead (Amersham)), 20 pM/well of Anti-Glutathione Transferase, Rabbit IgG (obtained from Molecular Probes), 61 mM EDTA and 50 mM HEPES pH 7.5 containing 0.05% sodium azide.
The plates were sealed with Topseal-S plate sealers, left for two hours then spun at 2500 rpm, 1124×g., for 5 minutes. The plates were read on a Topcount for 30 seconds per well. […]

[1] = target: T2, human Focal Adhesion Kinase (FAK) (Homo sapiens, UniProt Q05397); test: FAK3 kinase inhibition assay (in vitro enzyme ELISA); format: biochemical; conditions: Poly (Glu, Ala, Tyr) substrate, read-out: FAK inhibitory activity IC50
T2 construct: FAK (full length human cDNA described by Andre et al); made in house; host or cells: Sf21 (Spodoptera frugiperda) insect cells, baculovirus (pFastbac 1)
Description: A stock of substrate solution was prepared from a random copolymer containing tyrosine, for example Poly (Glu, Ala, Tyr) 6:3:1 (Sigma P3899), stored as 1 mg/ml stock in PBS at −20° C. and diluted 1 in 500 with PBS for plate coating.
The liquid was then discarded and the wells were washed twice with PBST.

T1 sequence (P11802 whole entry, the tested form may be a part): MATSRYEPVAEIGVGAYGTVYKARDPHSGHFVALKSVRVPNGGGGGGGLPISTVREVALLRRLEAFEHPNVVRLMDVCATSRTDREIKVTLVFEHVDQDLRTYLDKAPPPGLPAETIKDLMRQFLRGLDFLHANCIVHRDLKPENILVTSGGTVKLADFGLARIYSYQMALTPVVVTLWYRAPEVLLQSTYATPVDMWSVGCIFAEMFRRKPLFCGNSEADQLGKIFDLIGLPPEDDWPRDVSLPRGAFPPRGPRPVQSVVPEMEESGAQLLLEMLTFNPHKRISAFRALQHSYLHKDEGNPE
T1 sequence (P24385 whole entry partner, the tested form may be a part): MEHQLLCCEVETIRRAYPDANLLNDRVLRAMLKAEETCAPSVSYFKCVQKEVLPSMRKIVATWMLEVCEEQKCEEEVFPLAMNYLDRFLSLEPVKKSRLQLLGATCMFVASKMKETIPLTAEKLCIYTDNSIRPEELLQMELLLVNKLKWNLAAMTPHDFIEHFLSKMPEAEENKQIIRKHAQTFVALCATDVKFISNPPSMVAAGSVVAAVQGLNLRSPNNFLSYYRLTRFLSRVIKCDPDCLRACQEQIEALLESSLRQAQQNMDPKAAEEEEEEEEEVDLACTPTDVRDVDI
T2 sequence (Q05397 whole entry): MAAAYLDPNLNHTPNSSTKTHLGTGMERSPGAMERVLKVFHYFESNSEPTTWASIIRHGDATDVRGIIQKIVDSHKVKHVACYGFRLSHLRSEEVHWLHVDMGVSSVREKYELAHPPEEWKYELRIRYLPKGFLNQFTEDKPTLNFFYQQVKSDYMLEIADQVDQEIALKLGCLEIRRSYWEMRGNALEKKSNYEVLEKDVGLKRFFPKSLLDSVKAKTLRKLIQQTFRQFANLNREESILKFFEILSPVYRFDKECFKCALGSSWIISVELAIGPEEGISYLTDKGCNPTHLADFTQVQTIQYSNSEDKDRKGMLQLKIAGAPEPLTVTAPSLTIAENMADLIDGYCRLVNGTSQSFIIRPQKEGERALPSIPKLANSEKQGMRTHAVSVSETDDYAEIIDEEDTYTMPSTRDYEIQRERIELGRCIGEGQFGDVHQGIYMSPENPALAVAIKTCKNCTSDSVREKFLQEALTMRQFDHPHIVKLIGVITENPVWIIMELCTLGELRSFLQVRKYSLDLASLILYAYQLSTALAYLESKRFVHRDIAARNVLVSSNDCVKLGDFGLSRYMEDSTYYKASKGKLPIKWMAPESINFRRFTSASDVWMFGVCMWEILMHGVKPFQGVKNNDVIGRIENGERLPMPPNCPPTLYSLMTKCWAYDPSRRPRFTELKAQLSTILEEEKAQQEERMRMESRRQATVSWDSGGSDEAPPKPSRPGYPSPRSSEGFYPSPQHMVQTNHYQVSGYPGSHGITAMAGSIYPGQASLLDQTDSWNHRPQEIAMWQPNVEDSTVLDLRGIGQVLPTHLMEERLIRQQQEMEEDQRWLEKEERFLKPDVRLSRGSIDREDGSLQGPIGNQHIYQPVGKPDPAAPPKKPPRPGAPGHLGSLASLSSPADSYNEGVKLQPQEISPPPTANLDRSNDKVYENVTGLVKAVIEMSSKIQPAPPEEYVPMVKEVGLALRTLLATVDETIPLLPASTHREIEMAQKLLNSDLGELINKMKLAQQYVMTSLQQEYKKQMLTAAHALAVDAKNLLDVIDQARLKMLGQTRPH

SMILES | IC50 (CDK4/Cyclin D1) | IC50 [1]
CN(C)CC(O)COc1ccc(Nc2nccc(Nc3cc(Cl)ccc3Cl)n2)cc1 (stereo not drawn) [Example 11, 2-{4-[3-(N,N-Dimethyl)amino-2-hydroxy-propoxy]anilino}-4-(2,5-dichloroanilino)pyrimidine] | 530 nM | 
Cc1ccc(Nc2ccnc(Nc3ccc(OCC(O)CN(C)C)cc3)n2)c(Br)c1 (stereo not drawn) [Example 3, 2-{4-[3-(N,N-Dimethyl)amino-2-hydroxy-propoxy]anilino}-4-(2-bromo-4-methylanilino)pyrimidine] | 600 nM | 3.3 µM
